Assay [1] deals with sub-genomic HCV NS3-NS5B replicon of genotype 1b (ET subline) in Huh-7 cells. Kind of assay: Replicon Luciferase Cell Based Assay, genotype 1b. The note with it: Hepatitis C virus, Huh-7, 48 h, read-out: Genotype 1b (IC50 μM). The arrangement: species or system HCV genotype 1b. The method, boiled down: (§1)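 5,000 luciferase-replicon cells per well in DMEM with 5% FCS were exposed to 1:3 compound dilutions for 48 h at 37 °C. Firefly luciferase (Steady-Glo) was read, with CellTiter-Glo on duplicate plates for cytotoxicity; background-subtracted signal as % of compound-free control gave IC50.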
In general terms: A replicon is a self-replicating genome or part of one, used to study replication in cells.

The test system of assay [2] is sub-genomic HCV NS3-NS5B replicon of genotype 1a in Huh-7 cells. Kind of assay: Replicon Luciferase Cell Based Assay, genotype 1a. The note with it: Hepatitis C virus, Huh-7, 48 hours. The arrangement: species or system HCV genotype 1a. The essentials: as §1
The test system of assay [3] is HCV mutant replicon A156T. Kind of assay: HCV PI Transient Replicon Assay, A156T. The note with it: Hepatitis C virus, 72 h, read-out: A156T EC50 values (nM). The assay is classed as cell-based. From the text: (§2) A model system for HCV RNA replication is a cell based assay using subgenomic or genomic HCV replicons containing HCV genes and possibly a selectable and/or screenable marker. […] The HCV PI transient replicons assay was derived from two publications ([…]; J Virol 75, 12047, 2001). In this assay, the target cells were “ET Cured cells”, a cell line generated by treating ET replicons cells (RebliKon) with Interferon a for several passages until the HCV genome was cleared. Other modifications to the published protocol included 1) cells were transfected in PBS and 2) were treated for 72 hours with compounds. Data from dose responses was analyzed using BioAssay. EC50 values were generated by plotting percent inhibition against compound concentration. The various HCV mutant replicons were generated by standard molecular biology techniques and confirmed by sequencing.

The test system of assay [4] is HCV mutant replicon D168A. Kind of assay: HCV PI Transient Replicon Assay, D168A. The note with it: Hepatitis C virus, 72 h, read-out: D168A EC50 values (nM). The class given is cell-based.
Source text: as §2

Assay [5] deals with HCV mutant replicon A156S. Kind of assay: HCV PI Transient Replicon Assay, A156S. The note with it: Hepatitis C virus, 72 h, read-out: A156S EC50 values (nM). The assay is classed as cell-based.
Source text: as §2

Assay [6] concerns HCV mutant replicon R155K. Kind of assay: HCV PI Transient Replicon Assay, R155K. The class given is cell-based. The note with it: Hepatitis C virus, 72 h, read-out: R155K EC50 values (nM).
Source text: as §2

In assay [7] the test system is HCV mutant replicon D168V. The assay is described as follows: HCV PI Transient Replicon Assay, D168V. The class given is cell-based. The note with it: Hepatitis C virus, 72 h, read-out: D168V EC50 values (nM).
Source text: as §2

Another assay deals with HCV replicon wt. Kind of assay: HCV PI Transient Replicon Assay, wt. The assay is classed as cell-based. The note with it: Hepatitis C virus; ET Cured cells, 72 hours.
Source text: as §2

The subject of assay [8] is HCV mutant replicon A156V. The assay is described as follows: HCV PI Transient Replicon Assay, A156V. The note with it: Hepatitis C virus, 72 h, read-out: A156V EC50 values (nM). The assay is classed as cell-based.
Source text: as §2

As to `COc1ccc2c(O[C@@H]3C[C@H]4C(=O)N[C@]5(C(=O)NS(=O)(=O)C6CC6)C[C@H]5/C=C\CCCCC[C@H](NC(=O)N5CC(F)(F)C5)C(=O)N4C3)cc(-c3nc(C(C)C)cs3)nc2c1C` [Example 35, (2R,6S,13aS,14aR,16aS,Z)-N-(cyclopropylsulfonyl)-6-(3,3-difluoroazetidine-1-carboxamido)-2-(2-(4-isopropylthiazol-2-yl)-7-methoxy-8-methylquinolin-4-yloxy)-5,16-dioxo-1,2,3,5,6,7,8,9,10,11,13a,14,14a,15,16,16a-hexadecahydrocyclopropa[e]pyrrolo[1,2-a][1,4]diazacyclopentadecine-14a-carboxamide], the IC50 in assay [1] and in [2] was below 0.01 µM in each case.
`COc1ccc2c(O[C@@H]3C[C@H]4C(=O)N[C@]5(C(=O)NS(=O)(=O)C6CC6)C[C@H]5/C=C\CCCCC[C@H](NC(=O)N5CCC(C)(C)C5)C(=O)N4C3)cc(-c3nc(C(C)C)cs3)nc2c1C` [Example 36, (2R,6S,13aS,14aR,16aS,Z)-N-(cyclopropylsulfonyl)-6-(3,3-dimethylpyrrolidine-1-carboxamido)-2-(2-(4-isopropylthiazol-2-yl)-7-methoxy-8-methylquinolin-4-yloxy)-5,16-dioxo-1,2,3,5,6,7,8,9,10,11,13a,14,14a,15,16,16a-hexadecahydrocyclopropa[e]pyrrolo[1,2-a][1,4]diazacyclopentadecine-14a-carboxamide]: the IC50 in assay [1] and in [2] was below 0.01 µM in each case.
For `CC(C)(C)OC(=O)N[C@H]1CCCCC/C=C\[C@@H]2C[C@@]2(C(=O)NS(=O)(=O)C2CC2)NC(=O)[C@@H]2C[C@@H](OC(=O)N3Cc4cccc(F)c4C3)CN2C1=O` [ITMN-191], the half-maximal effective concentration (EC50) (in general, the concentration at which the effect is half-maximal) was 6.46 nM in assay [3]; 54.4 nM in assay [4]; 1.64 nM in assay [5]; 109 nM in assay [6]; 33.1 nM in [7]; 0.07 nM in the assay on HCV replicon wt. For the same compound, in assay [8], the EC50 was 11.9 nM.
Regarding `COc1ccc2c(O[C@@H]3C[C@H]4C(=O)N[C@]5(C(=O)NS(=O)(=O)C6CC6)C[C@H]5/C=C\CCCCN(C)C(=O)[C@@H]4C3)cc(-c3nc(C(C)C)cs3)nc2c1C` [TMC-435350], the EC50 in assay [3] was determined as 57.5 nM; in assay [4], 161 nM; in assay [5], 0.28 nM; in assay [6], 58.9 nM; in assay [7], 43.7 nM; in the assay on HCV replicon wt it was 0.87 nM. In addition, in [8], the EC50 was 36.3 nM.

Values taken from US20100196321A1, “COMPOUNDS” (GLAXOSMITHKLINE LLC, priority 2009, published 2010).
